How the values were obtained:
[1] = tested on: French beans (Phaseolus vulgaris); experiment: Soil application to French beans, effects on flowering (BBCH) and plant physiology (NDVI, NIR); assay type: in vivo; design: NIR (Near infrared band reflectance): unit not given here; settings: 0.01 mg AI per plant drench, mean of 4 reps; for BBCH (plant growth stage): 15DAA, check 57; for NDVI (Normalized difference vegetative index) / NIR (Near infrared band reflectance): 25DAA; for NDVI (Normalized difference vegetative index): check 0.431; for NIR (Near infrared band reflectance): check 4.32
Procedure: Four two week old French bean plants were treated with 0.01 mg Al per plant as soil application (drench). Plants were kept under glasshouse conditions at 22° C. with a photo-period of 14 h. 15DAA the development stage of blossoms was assessed. 25DAA the photosynthetic capacity of plants (NDVI, NIR) was measured.

Soybeans (Glycine max) = experiment: Seed application on soybeans in pouch, plant growth effects (shoot length, root system); assay type: in vivo; settings: 14 days, additional growth vs blank formulation check
Procedure: The formulated test compounds were added to a defined amount of water. This solution was applied into a pouch which was previously equipped with a filter paper. After the application soybean seeds were sown into the upper fault of the filter paper. The prepared pouches were then incubated for 14 days at 25° C. and a relative humidity of 65% with a photo period of 16 h. The evaluation was made by assessing the shoot length and the root system. Data represent the average of 10 replicates (1seed/plant per pouch).

| Structure (SMILES) | melting point | Mean shoot height increase (%) (Soybeans (Glycine max); AI concentration 5 ppm) | Mean shoot height increase in cm (Soybeans (Glycine max); AI concentration 5 ppm) [cm] | further results |
| --- | --- | --- | --- | --- |
| COCON1C(=O)C(c2cc(C)ccc2C)=C(O)C12CCN(OC)CC2 [Compound T20ii.030] | – | – | – | BBCH (plant growth stage) [1]: 58; NDVI (Normalized difference vegetative index) [1]: 0.427; NIR (Near infrared band reflectance) [1]: 4.07 |
| CON1CCC2(CC1)C(O)=C(c1cc(C)c(C)cc1Cl)C(=O)N2C [Compound P2.26, 3-(2-Chloro-4,5-dimethyl-phenyl)-4-hydroxy-8-methoxy-1-methyl-1,8-diaza-spiro[4.5]dec-3-en-2-one] | 191 to 192 °C | – | – | – |
| COCCON1C(=O)C(c2cc(Br)c(F)cc2C)=C(O)C12CCN(OC)CC2 [Compound P2ii.87] | 71 to 74 °C | – | – | – |
| CON1CCC2(CC1)C(O)=C(c1c(C)cc(C)cc1C)C(=O)N2OCC1CCCCC1 [Compound P2ii.96] | 169 to 172 °C | – | – | – |
| CON1CCC2(CC1)C(O)=C(c1c(C)cc(C)cc1C)C(=O)N2OCCOC1CCCCO1 (centres unmarked) [Compound P2ii.22] | 135 to 137 °C | – | – | – |
| COCCON1C(=O)C(c2c(C)cc(Cl)cc2C)=C(O)C12CCN(OC)CC2 [Compound P2ii.101] | 161 to 164 °C | – | – | – |
| CCOC(=O)OC1=C(c2c(C)ccc(C)c2C)C(=O)N(C)C12CCN(OC)CC2 [Compound P1.21] | – | 24.5 | 5.8 | – |
| CCOC(=O)OC1=C(c2c(C)cc(C)cc2C)C(=O)N(CC)C12CCN(OC)CC2 [Compound P1.8] | 101 to 103 °C | – | – | – |
| CCN1C(=O)C(c2c(C)cc(C)cc2C)=C(O)C12CCN(OC)CC2 [Compound P2.11] | 218 to 221 °C | – | – | – |
| CCOC(=O)OC1=C(c2c(C)cc(Cl)cc2C)C(=O)N(OC)C12CCN(OC)CC2 [Compound P1ii.114] | 122 to 125 °C | – | – | – |
| CCOC(=O)OC1=C(c2c(C)cc(Cl)cc2OC)C(=O)NC12CCN(OC)CC2 [T1iii.096, wherein G is COOCH2CH3] | – | 18.4 | 3.8 | – |
| CON1CCC2(CC1)C(O)=C(c1cc(Br)c(C)cc1C)C(=O)N2C [Compound P2.28] | 182 to 183 °C | – | – | – |
| CCOC(=O)OC1=C(c2cc(C)c(C)cc2Br)C(=O)N(C)C12CCN(OC)CC2 [Compound P1.20] | 158 to 159 °C | – | – | – |
| CON1CCC2(CC1)C(O)=C(c1c(C)cc(C)cc1C)C(=O)N2C [Compound P2.2, 4-hydroxy-8-methoxy-1-methyl-3-(2,4,6-trimethyl-phenyl)-1,8-diaza-spiro[4.5]dec-3-en-2-one] | – | – | – | Mean shoot height increase (%) (Soybeans (Glycine max); AI concentration 4 ppm): 7.2%; Mean shoot height increase in cm (Soybeans (Glycine max); AI concentration 4 ppm): 1.4 cm |
| CON1CCC2(CC1)C(O)=C(c1cc(C)c(C)cc1C)C(=O)N2C [Compound P2.25] | 183 to 186 °C | – | – | – |
| CCOC(=O)OC1=C(c2c(C)cc(C)cc2OC)C(=O)NC12CCN(OC)CC2 [T1iii.072, wherein G is COOCH2CH3] | – | 8.9 | 2.1 | – |
| COCON1C(=O)C(c2cc(Br)c(F)cc2C)=C(O)C12CCN(OC)CC2 [Compound P2ii.89] | 64 to 67 °C | – | – | – |
| CCOC(=O)OC1=C(c2c(C)cc(Cl)cc2C)C(=O)NC12CCN(OC)CC2 [T1iii.067, wherein G is COOCH2CH3] | – | 15.5 | 3.9 | – |
| CCOC(=O)OC1=C(c2c(C)cc(C)cc2C)C(=O)N(OCOC)C12CCN(OC)CC2 [T20ii.070, wherein G is CO2Et] | – | – | – | BBCH (plant growth stage) [1]: 59; NDVI (Normalized difference vegetative index) [1]: 0.539; NIR (Near infrared band reflectance) [1]: 4.65 |
| COCON1C(=O)C(c2c(C)cc(-c3ccc(Cl)cc3)cc2C)=C(O)C12CCN(OC)CC2 [Compound P2ii.15, 3-(4′-Chloro-3,5-dimethyl-biphenyl-4-yl)-4-hydroxy-8-methoxy-1-methoxymethoxy-1,8-diaza-spiro[4.5]dec-3-en-2-one] | 128 °C (dec.) | – | – | – |
| CON1CCC2(CC1)C(O)=C(c1c(C)cc(C)cc1C)C(=O)N2CC1CC1 [Compound P2.8, 1-Cyclopropylmethyl-4-hydroxy-8-methoxy-3-(2,4,6-trimethyl-phenyl)-1,8-diaza-spiro[4.5]dec-3-en-2-one] | 223 to 225 °C | – | – | – |
| CCOC(=O)OC1=C(c2c(C)cc(C)cc2OC)C(=O)N(OCC)C12CCN(OC)CC2 [T3ii.072, wherein G is COOCH2CH3] | – | 10.6 | 2.2 | – |
| COCON1C(=O)C(c2c(C)cc(C)cc2C)=C(O)C12CCN(OC)CC2 [Compound T20ii.070] | – | – | – | BBCH (plant growth stage) [1]: 58; NDVI (Normalized difference vegetative index) [1]: 0.518; NIR (Near infrared band reflectance) [1]: 4.59 |
| COCON1C(=O)C(c2c(C)cc(Cl)cc2C)=C(O)C12CCN(OC)CC2 [Compound P2ii.104] | 176 to 178 °C | – | – | – |
| CCOC(=O)OC1=C(c2c(C)cc(Cl)cc2OC)C(=O)N(C)C12CCN(OC)CC2 [T1.096, wherein G is COOCH2CH3] | – | 6.6 | 1.4 | – |

| Structure (SMILES) | melting point | Mean shoot height increase (%) (Soybeans (Glycine max); AI concentration 5 ppm) | Mean shoot height increase in cm (Soybeans (Glycine max); AI concentration 5 ppm) [cm] | further results |
| --- | --- | --- | --- | --- |
| CON1CCC2(CC1)C(O)=C(c1c(C)cc(Cl)cc1C)C(=O)N2OC1CCCO1 (centres unmarked) [Compound P2ii.105] | 137 to 139 °C | – | – | – |
| CCOC(=O)OC1=C(c2c(C)cc(Br)cc2CC)C(=O)N(C)C12CCN(OC)CC2 [T1.078, wherein G is COOCH2CH3] | – | 8.1 | 1.7 | – |
| CCOC(=O)OC1=C(c2c(C)cc(C)cc2C)C(=O)N(OCC)C12CCN(OC)CC2 [Compound P1ii.15] | – | 38.9 | 3.8 | – |
| COCON1C(=O)C(c2c(F)ccc(C)c2Cl)=C(O)C12CCN(OC)CC2 [Compound P2ii.60] | 155 to 158 °C | – | – | – |
| CON1CCC2(CC1)NC(=O)C(c1cc(C)ccc1C)=C2O [Compound T1iii.030] | – | – | – | BBCH (plant growth stage) [1]: 58; NDVI (Normalized difference vegetative index) [1]: 0.486; NIR (Near infrared band reflectance) [1]: 4.98 |
| CON1CCC2(CC1)C(O)=C(c1c(C)cc(C)cc1C)C(=O)N2C [Compound T1.070] | – | – | – | BBCH (plant growth stage) [1]: 59; NDVI (Normalized difference vegetative index) [1]: 0.418; NIR (Near infrared band reflectance) [1]: 3.81 |
| CON1CCC2(CC1)C(O)=C(c1cc(C)ccc1C)C(=O)N2C [Compound P2.1] | 121 to 123 °C | – | – | – |
| CCOC(=O)OC1=C(c2c(F)ccc(C)c2Cl)C(=O)N(OCOC)C12CCN(OC)CC2 [Compound P1ii.61] | 116 to 119 °C | – | – | – |
| COCON1C(=O)C(c2cc(C)ccc2C)=C(OC(=O)CC(C)(C)C)C12CCN(OC)CC2 [Compound P1ii.5] | 93 to 95 °C | – | – | – |
| CCOC(=O)OC1=C(c2c(C)cc(C)cc2C)C(=O)N(C)C12CCN(OC)CC2 [Compound P1.2, Carbonic acid ethyl ester 8-methoxy-1-methyl-2-oxo-3-(2,4,6-trimethyl-phenyl)-1,8-diaza-spiro[4.5]dec-3-en-4-yl ester] | – | 8.5 | 1.7 | – |
| CCOC(=O)OC1=C(c2c(C)cc(C)cc2CC)C(=O)NC12CCN(OC)CC2 [T1iii.071, wherein G is COOCH2CH3] | – | 8.6 | 1.8 | – |
| CCOC(=O)OC1=C(c2cc(C)c(C)cc2C)C(=O)N(OCOC)C12CCN(OC)CC2 [Compound P1ii.56] | – | 7.2 | 1.7 | – |
| CCOC(=O)OC1=C(c2c(C)cc(Br)cc2CC)C(=O)N(OC2CCCO2)C12CCN(OC)CC2 (centres unmarked) [T25N.078, wherein G is COOCH2CH3] | – | 14.5 | 3.0 | – |
| CON1CCC2(CC1)C(O)=C(c1c(C)cc(Cl)cc1C)C(=O)N2OC [Compound P2ii.102] | 88 to 92 °C | – | – | – |
| CON1CCC2(CC1)C(O)=C(c1cc(C)c(C)cc1Br)C(=O)N2C [Compound P2.23] | 191 to 193 °C | – | – | – |
| CCOC(=O)OC1=C(c2cc(C)ccc2C)C(=O)N(OCOC)C12CCN(OC)CC2 [T20ii.030, wherein G is CO2Et] | – | – | – | BBCH (plant growth stage) [1]: 59; NDVI (Normalized difference vegetative index) [1]: 0.522; NIR (Near infrared band reflectance) [1]: 4.45 |
| COCCON1C(=O)C(c2c(C)cc(C)cc2C)=C(O)C12CCN(OC)CC2 [Compound T22ii.070] | – | – | – | BBCH (plant growth stage) [1]: 59; NDVI (Normalized difference vegetative index) [1]: 0.471; NIR (Near infrared band reflectance) [1]: 4.18 |
| CCOC(=O)OC1=C(c2cc(C)c(C)cc2Cl)C(=O)N(C)C12CCN(OC)CC2 [Compound P1.22] | 149 to 150 °C | – | – | – |
| C=CCOC(=O)OC1=C(c2c(C)cc(C)cc2C)C(=O)N(C)C12CCN(OC)CC2 [T1.070, wherein G is COOCH2CH═CH2] | – | 10.2 | 2.1 | – |
| CCOC(=O)OC1=C(c2cc(C)c(C)cc2C)C(=O)N(OC)C12CCN(OC)CC2 [Compound P1ii.57] | – | 10.2 | 2.4 | – |
| COCON1C(=O)C(c2cc(C)ccc2C)=C(OC)C12CCN(OC)CC2 [Compound P1ii.31] | 91 to 93 °C | – | – | – |
| CCOC(=O)OC1=C(c2cc(C)ccc2C)C(=O)N(C)C12CCN(OC)CC2 [Compound P1.1] | 96 to 110 °C | – | – | – |
| CON1CCC2(CC1)C(O)=C(c1cc(Br)c(C)cc1C)C(=O)N2OC [Compound P2ii.75] | 86 to 87 °C | – | – | – |
| COCCON1C(=O)C(c2cc(Br)c(C)cc2C)=C(O)C12CCN(OC)CC2 [Compound P2ii.73] | 63 to 64 °C | – | – | – |
| CCOC(=O)OC1=C(c2c(C)cc(Br)cc2C)C(=O)N(C)C12CCN(OC)CC2 [Compound P1.12] | – | 16.0 | 3.8 | – |

Reference: US20140018242A1, “METHOD OF CROP ENHANCEMENT” (SYNGENTA PARTICIPATIONS AG, priority 2010, published 2014)
